Reference: ChEMBL document CHEMBL1143953, “Novel 2-phenylquinolin-7-yl-derived imidazo[1,5-a]pyrazines as potent insulin-like growth factor-I receptor (IGF-IR) inhibitors” (Bioorg Med Chem, 2008)

Key:
Cytochrome P450 3A4 = Cytochrome P450 3A4 (Homo sapiens, UniProt P08684); test: Inhibition of CYP3A4; format: ADME
[1] = target: Insulin-like growth factor 1 receptor (Homo sapiens, UniProt P08069)
Insulin-like growth factor 1 receptor, sequence (P08069 31-736 limits assumed): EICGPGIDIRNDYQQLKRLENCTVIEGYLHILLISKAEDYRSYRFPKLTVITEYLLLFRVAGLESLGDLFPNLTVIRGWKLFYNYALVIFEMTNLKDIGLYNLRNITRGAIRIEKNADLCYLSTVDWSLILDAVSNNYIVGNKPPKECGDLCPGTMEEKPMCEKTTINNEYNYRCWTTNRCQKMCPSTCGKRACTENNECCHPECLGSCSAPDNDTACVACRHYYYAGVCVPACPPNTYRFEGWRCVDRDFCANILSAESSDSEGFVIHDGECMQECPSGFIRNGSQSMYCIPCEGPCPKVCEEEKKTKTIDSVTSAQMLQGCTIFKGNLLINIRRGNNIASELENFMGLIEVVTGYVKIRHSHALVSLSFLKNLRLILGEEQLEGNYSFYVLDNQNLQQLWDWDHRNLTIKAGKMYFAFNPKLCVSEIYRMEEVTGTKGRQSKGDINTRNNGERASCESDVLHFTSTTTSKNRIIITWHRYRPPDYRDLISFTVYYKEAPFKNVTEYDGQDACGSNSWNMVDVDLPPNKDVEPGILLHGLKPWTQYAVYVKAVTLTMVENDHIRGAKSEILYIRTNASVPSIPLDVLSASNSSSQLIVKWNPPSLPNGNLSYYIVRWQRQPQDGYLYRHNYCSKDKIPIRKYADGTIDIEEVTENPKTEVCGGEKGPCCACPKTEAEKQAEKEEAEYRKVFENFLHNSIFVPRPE
Insulin-like growth factor 1 receptor, sequence (P08069 741-1367 limits assumed): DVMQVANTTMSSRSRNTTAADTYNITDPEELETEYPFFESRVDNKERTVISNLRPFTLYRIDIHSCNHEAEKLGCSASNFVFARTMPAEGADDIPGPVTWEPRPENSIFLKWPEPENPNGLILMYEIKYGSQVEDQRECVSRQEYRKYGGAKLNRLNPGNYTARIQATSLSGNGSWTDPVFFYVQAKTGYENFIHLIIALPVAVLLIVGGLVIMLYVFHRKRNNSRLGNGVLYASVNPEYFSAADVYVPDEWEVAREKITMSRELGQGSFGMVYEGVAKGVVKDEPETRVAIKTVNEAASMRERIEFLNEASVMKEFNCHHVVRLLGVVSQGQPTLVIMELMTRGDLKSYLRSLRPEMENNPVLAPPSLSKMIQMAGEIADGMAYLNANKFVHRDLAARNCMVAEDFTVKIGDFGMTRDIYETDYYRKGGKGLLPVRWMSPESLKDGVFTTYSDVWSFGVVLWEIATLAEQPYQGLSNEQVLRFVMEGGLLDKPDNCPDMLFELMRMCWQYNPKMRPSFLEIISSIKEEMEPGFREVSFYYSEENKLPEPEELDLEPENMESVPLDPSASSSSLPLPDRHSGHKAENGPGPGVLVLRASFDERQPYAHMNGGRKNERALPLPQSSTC
Description: Inhibition of human recombinant full length IGF1R expressed in mouse 3T3 cells

Cytochrome P450 3A4, sequence (P08684 whole entry): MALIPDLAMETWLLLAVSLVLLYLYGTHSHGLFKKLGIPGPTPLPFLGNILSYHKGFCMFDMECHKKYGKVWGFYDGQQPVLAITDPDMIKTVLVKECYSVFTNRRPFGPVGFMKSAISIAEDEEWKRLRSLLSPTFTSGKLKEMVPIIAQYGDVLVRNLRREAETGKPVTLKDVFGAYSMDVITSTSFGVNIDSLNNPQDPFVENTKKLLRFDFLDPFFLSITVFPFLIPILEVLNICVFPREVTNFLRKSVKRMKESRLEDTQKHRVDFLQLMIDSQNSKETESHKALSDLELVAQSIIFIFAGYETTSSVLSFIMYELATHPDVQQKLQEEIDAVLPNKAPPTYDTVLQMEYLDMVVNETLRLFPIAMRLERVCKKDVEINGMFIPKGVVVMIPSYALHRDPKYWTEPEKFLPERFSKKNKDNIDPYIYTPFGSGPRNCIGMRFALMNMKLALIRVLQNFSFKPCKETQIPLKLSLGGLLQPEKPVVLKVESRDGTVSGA

Row | IC50 (Cytochrome P450 3A4) [µM] | IC50 [1] [µM] | SMILES
1 | 19 |  | CN(C)[C@H]1C[C@@H](c2nc(-c3ccc4ccc(-c5ccccc5)nc4c3)c3c(N)nccn32)C1
2 |  | > 10 | Nc1nccn2c(C3CCC3)nc(-c3ccc4cccnc4c3)c12
3 | 15 |  | CN(C)C[C@H]1C[C@@H](c2nc(-c3ccc4ccc(-c5ccccc5)nc4c3)c3c(N)nccn32)C1
